In one data set the test system is PC12 cells. The data set can be described thus: Neuroprotection against H2O2-induced cell death in PC12 cells (MTT). It is filed as cell-based. The note with it: H2O2 (150 μM)-induced injury, mean ± SEM. How it is done:
The cell viability was measured using MTT [3-(4,5-dimethylthiazol-2-yl)-2,5-diphenyl tetrazolium bromide] assay ([Datki et al., 2003]). PC12 cells (from the Iranian Biological Resource Center, IBRC) received different treatments, including no treatment (control), 150 μM H2O2 alone, or 150 μM H2O2 in combination with 0.1–50 μM of the tested compound. The cells were seeded at 1 × 10^4 cells/well and incubated at 37 °C under a 5% CO2 atmosphere for 24 h, then treated with the tested compound and incubated for 3 h. Next, the cells were exposed to H2O2 for 2 h again. The MTT solution (20 μl, 5 mg/ml) was next replaced with the medium and incubated for 4 h. 100 μl of DMSO was added to dissolve the formazan precipitate. Absorbance was then measured at 570 nm using a multi-mode plate reader (Biotek, Winooski, VT). Cell viability is expressed as a percentage relative to the untreated control.

Another data set concerns the target T1, BuChE (equine serum) (Equus caballus, UniProt P81908).
T1 construct: purchased Sigma-Aldrich
The data set can be described thus: biochemical. It is filed as biochemical. The settings on record: equine serum BuChE; mean ± SEM of three experiments. The protocol: (§1) AChE, BuChE, 5,5'-dithiobis (2-nitrobenzoic acid) (DTNB), acetyl- and butyrylthiocholine iodides were purchased from Sigma-Aldrich. Five different concentrations of the corresponding compounds in ethanol-DMSO (9:1) were prepared. […] After 3 min of incubation, the substrate solution (acetylthiocholine iodide or butyrylthiocholine iodide, 0.05 M) was added and then incubated for at least 1 min at 25°C. […] The inhibition curve was obtained by plotting the percentage of enzyme activity (100% for the reference) versus the logarithm of the tested compound concentration. […]

Another data set concerns the target T2, AChE (electric eel) (Electrophorus electricus, UniProt O42275).
T2 construct: purchased Sigma-Aldrich
The data set can be described thus: biochemical. It is filed as biochemical. The note with it: electric eel AChE; mean ± SEM of three experiments. The protocol:
as §1

The target in another data set is T3, Aβ1-42 (Homo sapiens, UniProt P05067).
T3 construct: Amyloid-β protein 1–42 (Sigma A9810) was dissolved; purchased Sigma A9810
T3 sequence (P05067 672-713 limits assumed): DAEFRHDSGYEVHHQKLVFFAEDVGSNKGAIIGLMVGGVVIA
Description: Inhibition of self-induced Aβ1-42 aggregation (ThT assay). The data set is classed as biochemical. The settings on record: Aβ1-42 20 μM, compound 100 μM, after 48 h, ThT, mean ± SEM of three experiments. How it is done: Inhibitory properties of the compounds on self-induced and AChE-induced aggregation of amyloid-β protein 1–42 was determined using a thioflavin T (ThT)-based fluorescence assay with slight modifications ([Levine, 1993]). The ThT excitation/emission was measured at 448 nm/490 nm at 48 h using a SpectraMax® Microplate Reader. Amyloid-β protein 1–42 (Sigma A9810) was dissolved in Phosphate Buffer Saline pH 7.4 (PBS, HyClone Thermo Scientific) containing ammonium hydroxide (1%). Aβ1-42 (50 μM) was incubated for 24 h at 37°C for prefibrillation.
To determine AChE-induced Aβ1-42 aggregation, Aβ1-42 (20 μl) ± human recombinant AChE (0.01 u/ml, Sigma C1682) were added to […] of PBS buffer pH 7.4 including 0.15 M NaCl and 20 μM thioflavin T (ThT). The mixture was incubated at 37°C in the absence and presence of the compounds (100 μM) and the fluorescence intensities were determined. Due to the presence of the tested compounds, inhibition of self- or AChE-induced aggregation percent was determined by the following calculation: [100-((IFi/IFo) × 100)] where IFi and IFo are the fluorescence intensities obtained for Aβ ± AChE in the presence and in the absence of inhibitors.

The structures appear in SMILES notation.

T2 sequence (O42275 24-633): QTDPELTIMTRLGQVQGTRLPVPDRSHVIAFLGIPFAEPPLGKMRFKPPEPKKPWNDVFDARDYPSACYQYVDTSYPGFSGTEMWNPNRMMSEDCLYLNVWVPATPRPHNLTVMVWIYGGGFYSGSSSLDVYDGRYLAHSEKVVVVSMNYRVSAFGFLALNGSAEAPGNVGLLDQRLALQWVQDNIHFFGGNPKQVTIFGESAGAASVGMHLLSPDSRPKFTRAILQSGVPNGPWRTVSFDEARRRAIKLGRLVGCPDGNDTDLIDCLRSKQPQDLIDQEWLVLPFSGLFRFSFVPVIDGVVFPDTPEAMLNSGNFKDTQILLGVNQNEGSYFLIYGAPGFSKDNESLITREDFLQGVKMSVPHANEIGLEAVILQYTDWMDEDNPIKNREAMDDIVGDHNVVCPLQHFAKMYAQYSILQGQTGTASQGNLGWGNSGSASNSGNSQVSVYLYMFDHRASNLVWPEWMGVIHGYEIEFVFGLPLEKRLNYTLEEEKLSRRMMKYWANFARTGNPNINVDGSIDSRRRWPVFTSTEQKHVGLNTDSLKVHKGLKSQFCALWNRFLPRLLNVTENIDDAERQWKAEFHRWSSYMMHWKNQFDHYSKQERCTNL
T1 sequence (P81908 whole entry): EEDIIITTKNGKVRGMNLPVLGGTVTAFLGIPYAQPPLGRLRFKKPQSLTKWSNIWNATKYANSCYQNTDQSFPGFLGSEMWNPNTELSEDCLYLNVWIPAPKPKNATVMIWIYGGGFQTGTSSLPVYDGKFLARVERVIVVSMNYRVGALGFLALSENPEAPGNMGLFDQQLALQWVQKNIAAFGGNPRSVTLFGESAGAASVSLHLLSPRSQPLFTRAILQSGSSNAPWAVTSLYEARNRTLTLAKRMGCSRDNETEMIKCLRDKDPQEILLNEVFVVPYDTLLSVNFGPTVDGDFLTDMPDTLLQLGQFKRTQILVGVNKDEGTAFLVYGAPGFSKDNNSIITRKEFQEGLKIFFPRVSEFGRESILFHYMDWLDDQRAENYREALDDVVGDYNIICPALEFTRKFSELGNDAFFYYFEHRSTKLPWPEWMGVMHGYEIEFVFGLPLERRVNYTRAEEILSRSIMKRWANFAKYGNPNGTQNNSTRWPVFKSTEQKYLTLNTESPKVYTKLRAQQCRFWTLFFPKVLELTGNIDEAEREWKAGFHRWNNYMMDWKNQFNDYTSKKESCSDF

Turning to `COc1ccc2oc(=O)c(-c3ccc(OCCC[n+]4ccccc4)cc3)cc2c1.[Br-]` [Compound 3b, 1-(3-(4-(6-Methoxy-2-oxo-2H-chromen-3-yl)phenoxy)propyl)pyridinium Bromide], the “PC12 cell viability (% of control)” value with PC12 cells (0.1 μM compound) is reported as 31.7 ± 1.4 % of control; with PC12 cells (1 μM compound) it was 37.6 ± 1.1 % of control; in the data set on PC12 cells (5 μM compound) it was 43.3 ± 0.9 % of control; with PC12 cells (10 μM compound), 45.4 ± 1.3 % of control; in the data set on PC12 cells (20 μM compound), 49.6 ± 0.9 % of control; in the data set with PC12 cells (50 μM compound), 54.3 ± 1.6 % of control. Besides, the IC50 against BuChE (equine serum) stood at 68 ± 6 nM; against AChE (electric eel), 4 ± 1 nM.
Turning to `COc1ccc2cc(-c3ccc(OCCC[n+]4ccccc4)cc3)c(=O)oc2c1` [Compound 3c, 1-(3-(4-(7-Methoxy-2-oxo-2H-chromen-3-yl)phenoxy)propyl)pyridinium Bromide], the values for the concentration for half-maximal inhibition (IC50) on BuChE (equine serum) and against AChE (electric eel) were 57 ± 10 nM and 7 ± 1 nM, respectively.
For the compound `COc1cccc2cc(-c3ccc(OCCC[n+]4ccccc4)cc3)c(=O)oc12` [Compound 3d, 1-(3-(4-(8-Methoxy-2-oxo-2H-chromen-3-yl)phenoxy)propyl)pyridinium Bromide], the IC50 was 79 ± 9 nM against BuChE (equine serum) and 81 ± 4 nM at AChE (electric eel).
Regarding `O=c1oc2ccc(Br)cc2cc1-c1ccc(OCCC[n+]2ccccc2)cc1` [Compound 3e, 1-(3-(4-(6-Bromo-2-oxo-2H-chromen-3-yl)phenoxy)propyl)pyridinium Bromide], the IC50 against BuChE (equine serum) was determined as 33 ± 5 nM; against AChE (electric eel), 15 ± 3 nM.
Take `O=c1oc2ccccc2cc1-c1ccc(OCCCC[n+]2ccccc2)cc1.[Br-]` [Compound 3g, 1-(4-(4-(2-Oxo-2H-chromen-3-yl)phenoxy)butyl)pyridinium Bromide]: the “PC12 cell viability (% of control)” value in the data set on PC12 cells (0.1 μM compound) was 30.2 ± 1.4 % of control; in the data set with PC12 cells (1 μM compound), 33.6 ± 1.2 % of control; in the data set on PC12 cells (5 μM compound) it was 36.6 ± 0.9 % of control; in the data set with PC12 cells (10 μM compound), 45.8 ± 0.3 % of control; in the data set with PC12 cells (20 μM compound), 48.7 ± 0.9 % of control; with PC12 cells (50 μM compound), 49.9 ± 0.9 % of control. Also, the IC50 was found to be 91 ± 18 nM against BuChE (equine serum) and 7 ± 1 nM against AChE (electric eel).
For `COc1ccc2oc(=O)c(-c3ccc(OCCCC[n+]4ccccc4)cc3)cc2c1` [Compound 3h, 1-(4-(4-(6-Methoxy-2-oxo-2H-chromen-3-yl)phenoxy)butyl)pyridinium Bromide], the IC50 against BuChE (equine serum) came to 106 ± 8 nM; at AChE (electric eel) it was 1000 ± 37 nM.
Consider `COc1ccc2cc(-c3ccc(OCCCC[n+]4ccccc4)cc3)c(=O)oc2c1` [Compound 3i, 1-(4-(4-(7-Methoxy-2-oxo-2H-chromen-3-yl)phenoxy)butyl)pyridinium Bromide], for which the half-inhibitory concentration (IC50) at BuChE (equine serum) turned out to be 46 ± 1 nM; at AChE (electric eel) it was 144 ± 9 nM.
With `COc1cccc2cc(-c3ccc(OCCCC[n+]4ccccc4)cc3)c(=O)oc12` [Compound 3j, 1-(4-(4-(8-Methoxy-2-oxo-2H-chromen-3-yl)phenoxy)butyl)pyridinium Bromide], the IC50 was found to be 97 ± 19 nM at BuChE (equine serum) and 31 ± 5 nM against AChE (electric eel).
Turning to `O=c1oc2ccc(Br)cc2cc1-c1ccc(OCCCC[n+]2ccccc2)cc1` [Compound 3k, 1-(4-(4-(6-Bromo-2-oxo-2H-chromen-3-yl)phenoxy)butyl)pyridinium Bromide], the IC50 against BuChE (equine serum) is 92 ± 9 nM; at AChE (electric eel) it was 40 ± 5 nM.
`O=c1oc2ccc([N+](=O)[O-])cc2cc1-c1ccc(OCCCC[n+]2ccccc2)cc1.[Br-]` [Compound 3l, 1-(4-(4-(6-Nitro-2-oxo-2H-chromen-3-yl)phenoxy)butyl)pyridinium Bromide]: the “PC12 cell viability (% of control)” value in the data set with PC12 cells (0.1 μM compound) was 23.7 ± 0.5 % of control; in the data set with PC12 cells (1 μM compound), 27.3 ± 1.2 % of control; in the data set with PC12 cells (5 μM compound), 33.5 ± 1.2 % of control; in the data set with PC12 cells (10 μM compound), 37.8 ± 1.0 % of control; in the data set on PC12 cells (20 μM compound) it was 51.6 ± 1.1 % of control; in the data set on PC12 cells (50 μM compound), 55.7 ± 2.0 % of control. For the same compound, the IC50 was determined as 59 ± 11 nM against BuChE (equine serum) and 3 ± 1 nM against AChE (electric eel).
In the case of `O=c1oc2ccccc2cc1-c1ccc(OCCCCC[n+]2ccccc2)cc1` [Compound 3m, 1-(5-(4-(2-Oxo-2H-chromen-3-yl)phenoxy)pentyl)pyridinium Bromide], the figures for the IC50 on BuChE (equine serum) and on AChE (electric eel) were 86 ± 10 nM and 72 ± 8 nM, respectively.
For the compound `COc1cccc2cc(-c3ccc(OCCCCC[n+]4ccccc4)cc3)c(=O)oc12` [Compound 3n, 1-(5-(4-(8-Methoxy-2-oxo-2H-chromen-3-yl)phenoxy)pentyl)pyridinium Bromide], the IC50 at BuChE (equine serum) turned out to be 123 ± 24 nM; on AChE (electric eel) it was 15 ± 2 nM.
Take `O=c1oc2ccc([N+](=O)[O-])cc2cc1-c1ccc(OCCCCC[n+]2ccccc2)cc1` [Compound 3o, 1-(5-(4-(6-Nitro-2-oxo-2H-chromen-3-yl)phenoxy)pentyl)pyridinium Bromide]: the IC50 was found to be 27 ± 2 nM against BuChE (equine serum) and 22 ± 4 nM against AChE (electric eel).
Consider `O=c1oc2ccc(Br)cc2cc1-c1ccc(OCCCCC[n+]2ccccc2)cc1` [Compound 3p, 1-(5-(4-(6-Bromo-2-oxo-2H-chromen-3-yl)phenoxy)pentyl)pyridinium Bromide], for which the values for the IC50 at BuChE (equine serum) and at AChE (electric eel) were 49 ± 5 nM and 3 nM, respectively.
With `CCc1ccc(C)[n+](CCCCCOc2ccc(-c3cc4cc(Br)ccc4oc3=O)cc2)c1` [Compound 3q, 1-(5-(4-(6-Bromo-2-oxo-2H-chromen-3-yl)phenoxy)pentyl)-5-ethyl-2-methylpyridin-1-ium Bromide], the IC50 at BuChE (equine serum) was 22 ± 2.3 nM; at AChE (electric eel) it was 19 ± 1.6 nM.
As to `CN(C)c1cc[n+](CCCOc2ccc(-c3cc4ccccc4oc3=O)cc2)cc1` [Compound 3s, 4-(Dimethylamino)-1-(3-(4-(2-oxo-2H-chromen-3-yl)phenoxy)propyl)pyridin-1-ium Bromide], the results for the IC50 against BuChE (equine serum) and against AChE (electric eel) were 34 ± 2.6 nM and 22 ± 1.9 nM, respectively.
As for `COc1cc2c(cc1OC)C(=O)C(CC1CCN(Cc3ccccc3)CC1)C2` (stereo not drawn) [Donepezil, reference compound], the “Inhibition of self-induced Aβ aggregation” value at Aβ1-42 came to 30.8 ± 1.7%.
As to `O=c1c(O)c(-c2ccc(O)c(O)c2)oc2cc(O)cc(O)c12` [Quercetin, reference compound], the “PC12 cell viability (% of control)” value is 37.7 ± 1.2 % of control in the data set on PC12 cells (0.1 μM compound); 44.2 ± 0.7 % of control with PC12 cells (1 μM compound); 50.7 ± 0.1 % of control with PC12 cells (5 μM compound); 55.8 ± 0.3 % of control in the data set on PC12 cells (10 μM compound); 59.6 ± 0.8 % of control in the data set on PC12 cells (20 μM compound); 61.0 ± 0.8 % of control with PC12 cells (50 μM compound).

(Values after PMC9280334 (Frontiers in Chemistry, 2022).)
